Results reported in patent US11912701B2, “Protein kinase inhibitors for promoting liver regeneration or reducing or preventing hepatocyte death” (HEPAREGENIX GMBH, priority 2018, dated 2024).

Columns and labels:
Format in all cases: biochemical
BRaf = target: T1, BRaf (Homo sapiens, UniProt P15056); assay: 33PanQinase enzyme assay, BRaf; conditions: ratio IC50(BRaf)/IC50(MKK4)
T1 construct: purchased ProQinase GmbH, Freiburg, Germany (33PanQinase Assay Service)
In short: (§1)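 Radiometric 33PanQinase format: kinase with substrate, ATP and compound (added in 10% DMSO stock) incubated 60 min at 30° C, stopped with 2% H3PO4, ^33Pi incorporation counted by scintillation. Single-concentration data given as % residual activity; IC50 by least-squares fit, with selectivity as IC50(off-target)/IC50(MKK4).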

JNK1 = JNK1 (Homo sapiens, UniProt P45983); assay: 33PanQinase enzyme assay, JNK1; design: purchased ProQinase GmbH, Freiburg, Germany (33PanQinase Assay Service); conditions: ratio IC50(JNK1)/IC50(MKK4)
Sequence of JNK1 (P45983 whole entry): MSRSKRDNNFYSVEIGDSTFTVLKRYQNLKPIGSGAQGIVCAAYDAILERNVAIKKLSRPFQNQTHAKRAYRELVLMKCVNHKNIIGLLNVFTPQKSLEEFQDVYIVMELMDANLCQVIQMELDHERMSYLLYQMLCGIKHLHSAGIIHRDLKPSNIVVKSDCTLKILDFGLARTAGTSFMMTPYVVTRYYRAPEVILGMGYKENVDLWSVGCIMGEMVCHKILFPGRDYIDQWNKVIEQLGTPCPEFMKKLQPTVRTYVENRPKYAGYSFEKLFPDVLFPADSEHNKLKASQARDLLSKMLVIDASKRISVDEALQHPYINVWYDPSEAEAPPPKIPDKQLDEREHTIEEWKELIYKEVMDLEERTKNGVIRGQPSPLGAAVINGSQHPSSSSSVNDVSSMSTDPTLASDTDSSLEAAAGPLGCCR
In short: as §1

MKK4 = target: T2, MKK4 (Homo sapiens, UniProt P45985); assay: 33PanQinase enzyme assay, MKK4; conditions: assay 'IC50'; for IC50: read-out: Potency MKK4 (IC50)
T2 construct: purchased ProQinase GmbH, Freiburg, Germany (33PanQinase Assay Service)
T2 sequence (P45985 1-399): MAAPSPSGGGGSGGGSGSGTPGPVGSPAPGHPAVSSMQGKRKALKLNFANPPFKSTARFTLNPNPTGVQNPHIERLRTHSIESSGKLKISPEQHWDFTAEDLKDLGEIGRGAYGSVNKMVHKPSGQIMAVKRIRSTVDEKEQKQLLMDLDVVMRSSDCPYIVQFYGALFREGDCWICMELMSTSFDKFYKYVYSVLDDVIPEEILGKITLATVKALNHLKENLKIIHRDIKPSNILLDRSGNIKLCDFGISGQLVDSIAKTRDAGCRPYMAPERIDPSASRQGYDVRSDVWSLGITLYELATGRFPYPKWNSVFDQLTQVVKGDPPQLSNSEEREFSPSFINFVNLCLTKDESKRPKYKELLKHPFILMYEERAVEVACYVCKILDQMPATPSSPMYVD
In short: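 Radiometric 33PanQinase assay: kinase, substrate, ATP and compound in standard buffer, 60 min at 30 °C; 33Pi incorporation read by scintillation counting.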

MKK7 = target: T3, MKK7 (Homo sapiens, UniProt O14733); assay: 33PanQinase enzyme assay, MKK7; design: purchased ProQinase GmbH, Freiburg, Germany (33PanQinase Assay Service); conditions: ratio IC50(MKK7)/IC50(MKK4)
T3 sequence (O14733 1-419): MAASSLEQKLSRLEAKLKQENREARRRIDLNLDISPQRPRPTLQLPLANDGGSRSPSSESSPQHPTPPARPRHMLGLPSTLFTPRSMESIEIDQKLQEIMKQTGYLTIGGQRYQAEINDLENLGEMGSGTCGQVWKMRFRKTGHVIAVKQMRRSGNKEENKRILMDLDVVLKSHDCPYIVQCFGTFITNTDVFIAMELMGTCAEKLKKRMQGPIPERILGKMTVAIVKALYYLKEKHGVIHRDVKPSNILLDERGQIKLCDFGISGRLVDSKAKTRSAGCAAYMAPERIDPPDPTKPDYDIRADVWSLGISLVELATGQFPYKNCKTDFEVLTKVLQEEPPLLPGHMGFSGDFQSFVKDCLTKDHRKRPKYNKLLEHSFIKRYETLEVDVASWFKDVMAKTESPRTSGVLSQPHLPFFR
In short: as §1

T1 sequence (P15056 whole entry, species assumed): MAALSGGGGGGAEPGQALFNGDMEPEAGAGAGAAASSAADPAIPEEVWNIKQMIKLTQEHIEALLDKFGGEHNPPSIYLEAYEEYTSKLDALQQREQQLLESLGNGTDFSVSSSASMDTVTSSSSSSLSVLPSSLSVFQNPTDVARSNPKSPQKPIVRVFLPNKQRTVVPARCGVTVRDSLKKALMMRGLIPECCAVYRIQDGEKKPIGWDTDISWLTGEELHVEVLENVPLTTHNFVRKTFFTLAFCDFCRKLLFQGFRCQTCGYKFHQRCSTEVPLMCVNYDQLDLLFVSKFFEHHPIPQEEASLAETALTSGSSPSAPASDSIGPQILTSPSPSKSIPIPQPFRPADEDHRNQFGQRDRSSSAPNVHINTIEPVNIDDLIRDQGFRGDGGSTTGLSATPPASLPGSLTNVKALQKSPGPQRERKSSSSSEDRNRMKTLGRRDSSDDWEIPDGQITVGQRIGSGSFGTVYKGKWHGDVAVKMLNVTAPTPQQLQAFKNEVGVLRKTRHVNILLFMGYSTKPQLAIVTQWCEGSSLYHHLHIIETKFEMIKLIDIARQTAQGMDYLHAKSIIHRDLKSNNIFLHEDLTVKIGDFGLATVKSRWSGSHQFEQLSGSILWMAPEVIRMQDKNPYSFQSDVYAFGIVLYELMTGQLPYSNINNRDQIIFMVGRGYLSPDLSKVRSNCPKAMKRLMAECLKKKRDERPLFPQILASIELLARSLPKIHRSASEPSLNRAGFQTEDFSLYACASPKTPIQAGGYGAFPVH

| Selectivity Braf, IC50(off-target)/IC50(MKK4) (BRaf) | Selectivity JNK1, IC50(off-target)/IC50(MKK4) (JNK1) | IC50 (MKK4) | Selectivity IVIKK7, IC50(off-target)/IC50(MKK4) (MKK7) | Potency MKK4 (IC50) (MKK4) | SMILES |
| --- | --- | --- | --- | --- | --- |
| + (10 ≥ IC50(off-target)/IC50(MKK4) > 3) | + (10 ≥ IC50(off-target)/IC50(MKK4) > 3) | 1 to 10 µM | +++ (IC50(off-target)/IC50(MKK4) > 100) | – | CCCS(=O)(=O)Nc1c(F)ccc(C(=O)c2c[nH]c3ncc(-c4cnc(OCCCN(C)C)nc4)cc23)c1F [Example 200, N-(3-(5-(2-(3-(dimethylamino)propoxy)pyrimidin-5-yl)-1H-pyrrolo[2,3-b]pyridine-3-carbonyl)-2,6-difluorophenyl)propane-1-sulfonamide] |
| +++ (IC50(off-target)/IC50(MKK4) > 100) | ++·+ | < 0.1 µM | +++ (IC50(off-target)/IC50(MKK4) > 100) | – | O=C(c1ccc(F)c(NS(=O)(=O)CCC(F)(F)F)c1F)c1c[nH]c2ncc(-c3cnc(C(F)(F)F)nc3)cc12 [Example 142, N-(2,6-difluoro-3-(5-(2-(trifluoromethyl)pyrimidin-5-yl)-1H-pyrrolo[2,3-b]pyridine-3-carbonyl)phenyl)-3,3,3-trifluoro-propane-1-sulfonamide] |
| +++ (IC50(off-target)/IC50(MKK4) > 100) | +++ (IC50(off-target)/IC50(MKK4) > 100) | < 0.1 µM | +++ (IC50(off-target)/IC50(MKK4) > 100) | – | CCCS(=O)(=O)Nc1c(F)ccc(C(=O)c2c[nH]c3ncc(-c4cnc(NCCO)nc4)cc23)c1F [Example 201, N-(2,6-difluoro-3-(5-(2-((2-hydroxyethyl)amino)pyrimidin-5-yl)-1H-pyrrolo[2,3-b]pyridine-3-carbonyl)phenyl)propane-1-sulfonamide] |

More lines, now with the values behind:

| SMILES | Selectivity Braf, IC50(off-target)/IC50(MKK4) (BRaf) | Selectivity JNK1, IC50(off-target)/IC50(MKK4) (JNK1) | IC50 (MKK4) | Selectivity IVIKK7, IC50(off-target)/IC50(MKK4) (MKK7) | Potency MKK4 (IC50) (MKK4) |
| --- | --- | --- | --- | --- | --- |
| CCCS(=O)(=O)Nc1c(F)ccc(C(=O)c2c[nH]c3ncc(-c4cccc(C(=O)O)c4)cc23)c1F [Example 223, 3-(3-(2,4-difluoro-3-(propylsulfonamido)benzoyl)-1H-pyrrolo[2,3-b]pyridin-5-yl)benzoic acid] | + (10 ≥ IC50(off-target)/IC50(MKK4) > 3) | ++ (100 ≥ IC50(off-target)/IC50(MKK4) > 10) | < 0.1 µM | +++ (IC50(off-target)/IC50(MKK4) > 100) | – |
| O=C(c1ccc(F)c(NS(=O)(=O)Cc2ccccc2)c1)c1c[nH]c2ncc(-c3ccc(Cl)cc3)cc12 [Example 133, N-(5-(5-(4-chlorophenyl)-1H-pyrrolo[2,3-b]pyridine-3-carbonyl)-2-fluorophenyl)-1-phenylmethanesulfonamide] | ++ (100 ≥ IC50(off-target)/IC50(MKK4) > 10) | ◯ (3 ≥ IC50(off-target)/IC50(MKK4)) | 0.1 to 1 µM | +++ (IC50(off-target)/IC50(MKK4) > 100) | – |
| CCCS(=O)(=O)Nc1ccc(F)c(C(=O)c2c[nH]c3ncc(-c4ccc(NC(C)=O)cc4)cc23)c1F [Example 116, N-(4-(3-(2,6-difluoro-3-(propylsulfonamido)benzoyl)-1H-pyrrolo[2,3-b]pyridin-5-yl)phenyl)acetamide] | ◯ (3 ≥ IC50(off-target)/IC50(MKK4)) | ◯ (3 ≥ IC50(off-target)/IC50(MKK4)) | 0.1 to 1 µM | +++ (IC50(off-target)/IC50(MKK4) > 100) | – |
| CCCS(=O)(=O)Nc1ccc(F)c(C(=O)c2c[nH]c3ncc(N4CCNCC4)cc23)c1F [Example 71, N-(2,4-difluoro-3-(5-(piperazin-1-yl)-1H-pyrrolo[2,3-b]pyridine-3-carbonyl)phenyl)propane-1-sulfonamide] | ◯ (3 ≥ IC50(off-target)/IC50(MKK4)) | ◯ (3 ≥ IC50(off-target)/IC50(MKK4)) | 1 to 10 µM | ++ (100 ≥ IC50(off-target)/IC50(MKK4) > 10) | – |
| CCCS(=O)(=O)Nc1ccc(F)c(C(=O)c2c[nH]c3ncc(-c4ccc([S+](C)[O-])cc4)cc23)c1F (stereo not drawn) [Example 75, N-(2,4-difluoro-3-(5-(4-(methylsulfinyl)phenyl)-1H-pyrrolo[2,3-b]pyridine-3-carbonyl)phenyl)propane-1-sulfonamide] | ◯ (3 ≥ IC50(off-target)/IC50(MKK4)) | + (10 ≥ IC50(off-target)/IC50(MKK4) > 3) | 0.1 to 1 µM | +++ (IC50(off-target)/IC50(MKK4) > 100) | – |
| CCCS(=O)(=O)Nc1c(F)ccc(C(=O)c2c[nH]c3ncc(-c4cnc(C(C)C)nc4)cc23)c1F [Example 193, N-(2,6-difluoro-3-(5-(2-isopropylpyrimidin-5-yl)-1H-pyrrolo[2,3-b]pyridine-3-carbonyl)phenyl)propane-1-sulfonamide] | ++ (100 ≥ IC50(off-target)/IC50(MKK4) > 10) | +++ (IC50(off-target)/IC50(MKK4) > 100) | < 0.1 µM | +++ (IC50(off-target)/IC50(MKK4) > 100) | – |
| CCCS(=O)(=O)Nc1ccc(F)c(C(=O)c2c[nH]c3ncc(C(=O)NOCCO)cc23)c1F [Example 94, 3-(2,6-difluoro-3-(propylsulfonamido)benzoyl)-N-(2-hydroxyethoxy)-1H-pyrrolo[2,3-b]pyridine-5-carboxamide] | ◯ (3 ≥ IC50(off-target)/IC50(MKK4)) | + (10 ≥ IC50(off-target)/IC50(MKK4) > 3) | < 0.1 µM | +++ (IC50(off-target)/IC50(MKK4) > 100) | – |
| CCCS(=O)(=O)Nc1ccc(F)c(C(=O)c2c[nH]c3ncc(N4CCCCC4)cc23)c1F [Example 140] | ◯ (3 ≥ IC50(off-target)/IC50(MKK4)) | ◯ (3 ≥ IC50(off-target)/IC50(MKK4)) | 1 to 10 µM | ++ (100 ≥ IC50(off-target)/IC50(MKK4) > 10) | – |
| CCCS(=O)(=O)Nc1c(F)ccc(C(=O)c2c[nH]c3ncc(-c4ccc(S(F)(F)(F)(F)F)cc4)cc23)c1F [Example 155, N-(2,6-difluoro-3-(5-(4-(pentafluoro-l6-sulfaneyl)phenyl)-1H-pyrrolo[2,3-b]pyridine-3-carbonyl)phenyl)propane-1-sulfonamide] | +++ (IC50(off-target)/IC50(MKK4) > 100) | ++ (100 ≥ IC50(off-target)/IC50(MKK4) > 10) | – | +++ (IC50(off-target)/IC50(MKK4) > 100) | ++·+ |
| CCCS(=O)(=O)Nc1ccc(F)c(C(=O)c2c[nH]c3ncc(-c4ccc(SC)cc4)cc23)c1F [Example 55] | ◯ (3 ≥ IC50(off-target)/IC50(MKK4)) | + (10 ≥ IC50(off-target)/IC50(MKK4) > 3) | 0.1 to 1 µM | +++ (IC50(off-target)/IC50(MKK4) > 100) | – |
| CCCS(=O)(=O)Nc1c(F)ccc(C(=O)c2c[nH]c3ncc(-c4ccccc4C(=O)O)cc23)c1F [Example 224, 2-(3-(2,4-difluoro-3-(propylsulfonamido)benzoyl)-1H-pyrrolo[2,3-b]pyridin-5-yl)benzoic acid] | ◯ (3 ≥ IC50(off-target)/IC50(MKK4)) | ◯ (3 ≥ IC50(off-target)/IC50(MKK4)) | 1 to 10 µM | ++ (100 ≥ IC50(off-target)/IC50(MKK4) > 10) | – |
| C#Cc1ncc(-c2cnc3[nH]cc(C(=O)c4ccc(F)c(NS(=O)(=O)CCC)c4F)c3c2)cn1 [Example 208, N-(3-(5-(2-ethynylpyrimidin-5-yl)-1H-pyrrolo[2,3-b]pyridine-3-carbonyl)-2,6-difluorophenyl)propane-1-sulfonamide] | ++ (100 ≥ IC50(off-target)/IC50(MKK4) > 10) | +++ (IC50(off-target)/IC50(MKK4) > 100) | < 0.1 µM | ++ (100 ≥ IC50(off-target)/IC50(MKK4) > 10) | – |
